Test results from patent US20240148821A1, “PHARMACEUTICAL USE OF CYCLIC PEPTIDE COMPOUND” (CHUGAI SEIYAKU KABUSHIKI KAISHA, priority 2021, published 2024).
Numbered stars: 1 amine (or outer) side, 2 acyl side, 3 side chain; on linkers, the order of the positions; unused ones are H or OH. Bridge positions count the residues as written; N and C are the ends. Square brackets hold non-standard residues; d marks the D form. Peptide text beside a SMILES is read from it. * marks the point of attachment. hPhe(3-Cl-4-CF3) = N[C@@H](CCc1ccc(C(F)(F)F)c(Cl)c1)C(=O)O; hPhe(3-F,4-CF3) = N[C@@H](CCc1ccc(C(F)(F)F)c(F)c1)C(=O)O; NEtPhe(4-CF3) = CCN[C@@H](Cc1ccc(C(F)(F)F)cc1)C(=O)O; hPhe(4-CF3) = N[C@@H](CCc1ccc(C(F)(F)F)cc1)C(=O)O; Pro(cis-4-Ph) = O=C(O)[C@@H]1C[C@H](c2ccccc2)CN1; 3Oxa8azabicyclo(3.2.1)octane = C1CC2COCC1N2*; NMePhe(4-Cl) = CN[C@@H](Cc1ccc(Cl)cc1)C(=O)O; NMePhe(4-F) = CN[C@@H](Cc1ccc(F)cc1)C(=O)O; NMedβ3hAla = C[C@H](CC(=O)[*:2])N(C)[*:1]; NMeGly(cPent) = CN[C@H](C(=O)O)C1CCCC1; NMeCha = CN[C@@H](CC1CCCCC1)C(=O)O; Hyp = O=C(O)[C@@H]1C[C@@H](O)CN1; NMeChg = CN[C@H](C(=O)O)C1CCCCC1; NMeF = CN[C@@H](Cc1ccccc1)C(=O)O; NMeI = CC[C@H](C)[C@H](NC)C(=O)O; NMeD = CN[C@@H](CC(=O)O)C(=O)O; NMeL = CN[C@@H](CC(C)C)C(=O)O; NMehSer = CN[C@@H](CCO)C(=O)O; NMeV = CN[C@H](C(=O)O)C(C)C; d(β3hA) = C[C@@H](N)CC(=O)O; NMeS = CN[C@@H](CO)C(=O)O; Pip = O=C(O)[C@@H]1CCCCN1; NMeA = CN[C@@H](C)C(=O)O; Piperidide = C1CCN(*)CC1; Ac5c = NC1(C(=O)O)CCCC1; Aze = O=C(O)[C@@H]1CCN1; Sar = CNCC(=O)O; Propyl = CCC*

Biological target: protein-protein interaction between Kras and SOS1 (biotin-tagged human Kras loaded with GDP, His-tagged human SOS1) (Homo sapiens (Human), UniProt P01116, G12D)
Assay: Protein-protein interaction inhibition between Kras and SOS1 (KrasG12D-SOS PPI) using AlphaScreen;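 also: kras produced in E. coli, Ni-coupled donor beads and streptavidin acceptor beads, excitation 680 nm with emission detected at 520–620 nm via singlet oxygen transfer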
Format: biochemical
Conditions: AlphaScreen; biotin-tagged human Kras loaded with GDP, His-tagged human SOS1; read-out: KRAS G12D-SOS PPI IC50

Question: With `CC[C@H](C)[C@@H]1NC(=O)[C@H](CC(C)C)N(C)C(=O)C[C@@H](C(=O)N2CCCCC2)N(C)C(=O)[C@H](C2CCCC2)N(C)C(=O)C2(CCCC2)NC(=O)[C@@H]2CCCN2C(=O)[C@H](CCc2ccc(C(F)(F)F)c(Cl)c2)NC(=O)CN(C)C(=O)[C@H](Cc2ccc(F)cc2)N(C)C(=O)[C@@H]2CCN2C(=O)[C@H](C)N(C)C1=O` [Compound 388] ([NMeL]I[NMeA][Aze][NMePhe(4-F)][Sar][hPhe(3-Cl-4-CF3)]P[Ac5c][NMeGly(cPent)][NMeD]-Piperidide; lactam N-11) as the compound, how does the IC50 read?
Answer: 0.5 nM

Question: For `CC[C@H](C)[C@@H]1NC(=O)[C@H](CCOC)N(C)C(=O)C[C@@H](C(=O)N2CCCCC2)N(C)C(=O)[C@H](C(C)C)N(C)C(=O)C2(CCCC2)NC(=O)[C@@H]2CCCN2C(=O)[C@H](CCc2ccc(C(F)(F)F)c(Cl)c2)NC(=O)CN(C)C(=O)[C@H](CC2CCCCC2)N(C)C(=O)[C@@H]2CCN2C(=O)[C@H](C)N(C)C1=O` [Compound 397] ([NMehSer](Me)I[NMeA][Aze][NMeCha][Sar][hPhe(3-Cl-4-CF3)]P[Ac5c][NMeV][NMeD]-Piperidide; lactam N-11), which IC50 is on record?
Answer: 2.3 nM

Question: How did the IC50 turn out when `CCO[C@@H]1C[C@H]2C(=O)NC3(CCCC3)C(=O)N(C)[C@@H](C3CCCC3)C(=O)N(C)[C@H](C)CC(=O)N(C)[C@@H](CC(C)C)C(=O)N[C@@H]([C@@H](C)CC)C(=O)N[C@@H](C)C(=O)N3CC[C@H]3C(=O)N(CC)[C@@H](Cc3ccc(C(F)(F)F)cc3)C(=O)N(C)CC(=O)N[C@@H](CCc3ccc(C(F)(F)F)c(Cl)c3)C(=O)N2C1` [Compound 401] (cyclo(A[Aze][NEtPhe(4-CF3)][Sar][hPhe(3-Cl-4-CF3)][Hyp](Et)[Ac5c][NMeGly(cPent)][NMedβ3hAla][NMeL]I)) was run?
Answer: 3.6 nM

Question: With `CC[C@H](C)[C@@H]1NC(=O)[C@H](C)NC(=O)C[C@@H](C)N(C)C(=O)[C@H](CC(C)C)N(C)C(=O)[C@H](Cc2ccccc2)N(C)C(=O)[C@H](CC(C)C)NC(=O)[C@H](CCc2ccc(C(F)(F)F)cc2)NC(=O)CN(C)C(=O)[C@H](Cc2ccc(Cl)cc2)N(C)C(=O)CN(C)C(=O)CN(C)C1=O` [Compound 406] (cyclo(AI[Sar][Sar][NMePhe(4-Cl)][Sar][hPhe(4-CF3)]L[NMeF][NMeL][NMedβ3hAla])) as the compound, how does the IC50 read?
Answer: 250 nM

Question: For `CCCOC[C@H]1C(=O)N(C)CC(=O)N[C@@H](CCc2ccc(C(F)(F)F)c(F)c2)C(=O)N2CCC[C@H]2C(=O)NC2(CCCC2)C(=O)N(C)[C@@H]([C@@H](C)CC)C(=O)N(C)[C@H](C(=O)N2C3CCC2COC3)CC(=O)N(C)[C@@H](CC(C)C)C(=O)N[C@@H]([C@@H](C)CC)C(=O)N(C)[C@@H](C)C(=O)N2CC[C@H]2C(=O)N1C` [Compound 408] ([NMeL]I[NMeA][Aze][NMeS](Propyl)[Sar][hPhe(3-F,4-CF3)]P[Ac5c][NMeI][NMeD]-{3Oxa8azabicyclo(3.2.1)octane}; lactam N-11), which IC50 is on record?
Answer: 11 nM

Question: How did the IC50 turn out when `CC[C@H](C)[C@@H]1NC(=O)[C@H](CC(C)C)N(C)C(=O)C[C@@H](C(=O)N2CCCCC2)N(C)C(=O)[C@H]([C@@H](C)CC)N(C)C(=O)C2(CCCC2)NC(=O)[C@@H]2CCCN2C(=O)[C@H](CCc2ccc(C(F)(F)F)c(F)c2)NC(=O)CN(C)C(=O)[C@H](CC2CCCCC2)N(C)C(=O)[C@@H]2CCN2C(=O)[C@H](C)N(C)C1=O` [Compound 409] ([NMeL]I[NMeA][Aze][NMeCha][Sar][hPhe(3-F,4-CF3)]P[Ac5c][NMeI][NMeD]-Piperidide; lactam N-11) was run?
Answer: 2.4 nM

Question: `CC[C@H](C)[C@@H]1NC(=O)[C@H](C)N(C)C(=O)C[C@@H](C)NC(=O)[C@H](C(C)C)N(C)C(=O)C2(CCCC2)NC(=O)[C@@H]2CCCN2C(=O)[C@H](CCc2ccc(C(F)(F)F)c(Cl)c2)NC(=O)[C@H]2CCCN2C(=O)[C@H](CC2CCCCC2)N(C)C(=O)CN(C)C(=O)CN(C)C1=O` [Compound 412] (cyclo([Ac5c][NMeV][d(β3hA)][NMeA]I[Sar][Sar][NMeCha][dP][hPhe(3-Cl-4-CF3)]P)) was tested. Which IC50 did it give?
Answer: 120 nM

Question: How did the IC50 turn out when `CC[C@H](C)[C@@H]1NC(=O)[C@H](CC(C)C)N(C)C(=O)C[C@@H](C)NC(=O)[C@H](C(C)C)N(C)C(=O)C2(CCCC2)NC(=O)[C@@H]2CCCN2C(=O)[C@H](CCc2ccc(C(F)(F)F)c(Cl)c2)NC(=O)CN(C)C(=O)[C@H](CC2CCCCC2)N(C)C(=O)[C@@H]2CCN2C(=O)[C@@H]2CCCCN2C1=O` [Compound 416] (cyclo([Ac5c][NMeV][d(β3hA)][NMeL]I[Pip][Aze][NMeCha][Sar][hPhe(3-Cl-4-CF3)]P)) was run?
Answer: 54 nM

Question: How did the IC50 turn out when `CC[C@H](C)[C@@H]1NC(=O)[C@H](CC(C)C)N(C)C(=O)C[C@@H](C(=O)N2CCCCC2)N(C)C(=O)[C@H](C2CCCCC2)N(C)C(=O)C2(CCCC2)NC(=O)[C@@H]2C[C@H](c3ccccc3)CN2C(=O)[C@H](CCc2ccc(C(F)(F)F)c(Cl)c2)NC(=O)CN(C)C(=O)[C@H](CC2CCCCC2)N(C)C(=O)CN(C)C(=O)CN(C)C1=O` [Compound 428] ([NMeL]I[Sar][Sar][NMeCha][Sar][hPhe(3-Cl-4-CF3)][Pro(cis-4-Ph)][Ac5c][NMeChg][NMeD]-Piperidide; lactam N-11) was run?
Answer: 9.1 nM
